{
  "source": "ChEMBL document CHEMBL3045089",
  "about": "“Synthesis, spectral studies, antimicrobial and insect antifeedant activities of some substituted styryl 4-fluorophenyl ketones” (2011)",
  "key": {"Achaea janata [1]": {"test_system": "Achaea janata", "assay": "Antifeedant activity against fourth instar larvae of Achaea janata L. on Riclmus cammunls leaves assessed as number of leaf discs consumed in 24 hrs at 150 ppm at 26 +/- 1 degC", "type": "functional"}, "Achaea janata [2]": {"test_system": "Achaea janata", "assay": "Antifeedant activity against fourth instar larvae of Achaea janata L. on Riclmus cammunls leaves assessed as number of leaf discs consumed in 24 hrs at 100 ppm at 26 +/- 1 degC", "type": "functional"}, "Achaea janata [3]": {"test_system": "Achaea janata", "assay": "Antifeedant activity against fourth instar larvae of Achaea janata L. on Riclmus cammunls leaves assessed as number of leaf discs consumed in 24 hrs at 50 ppm at 26 +/- 1 degC", "type": "functional"}, "Achaea janata [4]": {"test_system": "Achaea janata", "assay": "Antifeedant activity against fourth instar larvae of Achaea janata L. on Riclmus cammunls leaves assessed as number of leaf discs consumed in 24 hrs at 200 ppm at 26 +/- 1 degC", "type": "functional"}, "Aspergillus niger": {"test_system": "Aspergillus niger", "assay": "Antifungal activity against Aspergillus niger assessed as inhibition zone at 50 ug/ml measured after 72 hrs by drug dilution method", "type": "functional, organism-based"}, "Penicillium": {"test_system": "Penicillium", "assay": "Antifungal activity against Penicillium assessed as inhibition zone at 50 ug/ml measured after 72 hrs by drug dilution method", "type": "functional, organism-based"}, "Enterococcus faecalis": {"test_system": "Enterococcus faecalis", "assay": "Antibacterial activity against Enterococcus faecalis assessed as inhibition zone at 250 ug/ml measured after 24 to 45 hrs by disk diffusion method", "type": "functional"}, "Proteus vulgaris": {"test_system": "Proteus vulgaris", "assay": "Antibacterial activity against Proteus vulgaris assessed as inhibition zone at 250 ug/ml measured after 24 to 45 hrs by disk diffusion method", "type": "functional"}, "Klebsiella": {"test_system": "Klebsiella", "assay": "Antibacterial activity against Klebsiella species assessed as inhibition zone at 250 ug/ml measured after 24 to 45 hrs by disk diffusion method", "type": "functional"}, "Pseudomonas": {"test_system": "Pseudomonas", "assay": "Antibacterial activity against Pseudomonas assessed as inhibition zone at 250 ug/ml measured after 24 to 45 hrs by disk diffusion method", "type": "functional"}, "Staphylococcus aureus": {"test_system": "Staphylococcus aureus", "assay": "Antibacterial activity against Staphylococcus aureus assessed as inhibition zone at 250 ug/ml measured after 24 to 45 hrs by disk diffusion method", "type": "functional"}, "Escherichia coli": {"test_system": "Escherichia coli", "assay": "Antibacterial activity against Escherichia coli assessed as inhibition zone at 250 ug/ml measured after 24 to 45 hrs by disk diffusion method", "type": "functional"}, "Candida albicans": {"test_system": "Candida albicans", "assay": "Antifungal activity against Candida albicans assessed as inhibition zone at 250 ug/ml measured after 72 hrs by disk diffusion method", "type": "functional, organism-based"}},
  "note": "Calls of active or inactive are those of the source. The rule behind the calls is not given here.",
  "data": [
    {"compound": "O=C(/C=C/c1ccc(Cl)cc1)c1ccc(F)cc1", "values": [
      {"measurement": "Activity", "setting": "Achaea janata [1]", "value": 0},
      {"measurement": "Activity", "setting": "Achaea janata [2]", "value": 0.05},
      {"measurement": "Activity", "setting": "Achaea janata [3]", "value": 0.1},
      {"measurement": "Activity", "setting": "Achaea janata [4]", "value": 0.1},
      {"measurement": "Activity", "setting": "Aspergillus niger", "value": "inactive"},
      {"measurement": "Activity", "setting": "Penicillium", "value": "inactive"},
      {"measurement": "Activity", "setting": "Enterococcus faecalis", "value": "inactive"},
      {"measurement": "Activity", "setting": "Proteus vulgaris", "value": 13, "unit": "mm"},
      {"measurement": "Activity", "setting": "Klebsiella", "value": 13, "unit": "mm"},
      {"measurement": "Activity", "setting": "Pseudomonas", "value": 13, "unit": "mm"},
      {"measurement": "Activity", "setting": "Staphylococcus aureus", "value": 13, "unit": "mm"},
      {"measurement": "Activity", "setting": "Escherichia coli", "value": 13, "unit": "mm"}
    ]},
    {"compound": "O=C(/C=C/c1ccccc1[N+](=O)[O-])c1ccc(F)cc1", "values": [
      {"measurement": "Activity", "setting": "Achaea janata [4]", "value": 12},
      {"measurement": "Activity", "setting": "Aspergillus niger", "value": "inactive"},
      {"measurement": "Activity", "setting": "Penicillium", "value": "inactive"},
      {"measurement": "Activity", "setting": "Candida albicans", "value": "inactive"},
      {"measurement": "Activity", "setting": "Enterococcus faecalis", "value": "inactive"},
      {"measurement": "Activity", "setting": "Proteus vulgaris", "value": 13, "unit": "mm"},
      {"measurement": "Activity", "setting": "Klebsiella", "value": 13, "unit": "mm"},
      {"measurement": "Activity", "setting": "Pseudomonas", "value": 13, "unit": "mm"},
      {"measurement": "Activity", "setting": "Staphylococcus aureus", "value": 13, "unit": "mm"},
      {"measurement": "Activity", "setting": "Escherichia coli", "value": 13, "unit": "mm"}
    ]},
    {"compound": "COc1ccc(/C=C/C(=O)c2ccc(F)cc2)cc1", "values": [
      {"measurement": "Activity", "setting": "Achaea janata [4]", "value": 9},
      {"measurement": "inhibition", "setting": "Penicillium", "value": "Active"},
      {"measurement": "inhibition", "setting": "Candida albicans", "value": "Active"},
      {"measurement": "Activity", "setting": "Enterococcus faecalis", "value": 20, "unit": "mm"},
      {"measurement": "Activity", "setting": "Proteus vulgaris", "value": 13, "unit": "mm"},
      {"measurement": "Activity", "setting": "Klebsiella", "value": 13, "unit": "mm"},
      {"measurement": "Activity", "setting": "Pseudomonas", "value": 13, "unit": "mm"},
      {"measurement": "Activity", "setting": "Staphylococcus aureus", "value": 13, "unit": "mm"},
      {"measurement": "Activity", "setting": "Escherichia coli", "value": 13, "unit": "mm"}
    ]},
    {"compound": "O=C(/C=C/c1cccc(Cl)c1)c1ccc(F)cc1", "values": [
      {"measurement": "Activity", "setting": "Achaea janata [4]", "value": 0.4},
      {"measurement": "Activity", "setting": "Candida albicans", "value": "inactive"},
      {"measurement": "Activity", "setting": "Enterococcus faecalis", "value": "inactive"},
      {"measurement": "Activity", "setting": "Proteus vulgaris", "value": 13, "unit": "mm"},
      {"measurement": "Activity", "setting": "Klebsiella", "value": 13, "unit": "mm"},
      {"measurement": "Activity", "setting": "Pseudomonas", "value": 13, "unit": "mm"},
      {"measurement": "Activity", "setting": "Staphylococcus aureus", "value": 13, "unit": "mm"},
      {"measurement": "Activity", "setting": "Escherichia coli", "value": 13, "unit": "mm"}
    ]},
    {"compound": "O=C(/C=C/c1ccccc1)c1ccc(F)cc1", "values": [
      {"measurement": "Activity", "setting": "Achaea janata [4]", "value": 8},
      {"measurement": "Activity", "setting": "Aspergillus niger", "value": "inactive"},
      {"measurement": "Activity", "setting": "Penicillium", "value": "inactive"},
      {"measurement": "Activity", "setting": "Candida albicans", "value": "inactive"},
      {"measurement": "Activity", "setting": "Enterococcus faecalis", "value": "inactive"},
      {"measurement": "Activity", "setting": "Proteus vulgaris", "value": 8, "unit": "mm"},
      {"measurement": "Activity", "setting": "Klebsiella", "value": 8, "unit": "mm"},
      {"measurement": "Activity", "setting": "Pseudomonas", "value": 8, "unit": "mm"},
      {"measurement": "Activity", "setting": "Staphylococcus aureus", "value": 13, "unit": "mm"},
      {"measurement": "Activity", "setting": "Escherichia coli", "value": 8, "unit": "mm"}
    ]},
    {"compound": "O=C(/C=C/c1cccc([N+](=O)[O-])c1)c1ccc(F)cc1", "values": [
      {"measurement": "Activity", "setting": "Achaea janata [4]", "value": 10},
      {"measurement": "Activity", "setting": "Aspergillus niger", "value": "inactive"},
      {"measurement": "Activity", "setting": "Penicillium", "value": "inactive"},
      {"measurement": "Activity", "setting": "Candida albicans", "value": "inactive"},
      {"measurement": "Activity", "setting": "Enterococcus faecalis", "value": "inactive"},
      {"measurement": "Activity", "setting": "Proteus vulgaris", "value": 13, "unit": "mm"},
      {"measurement": "Activity", "setting": "Klebsiella", "value": 13, "unit": "mm"},
      {"measurement": "Activity", "setting": "Pseudomonas", "value": 13, "unit": "mm"},
      {"measurement": "Activity", "setting": "Staphylococcus aureus", "value": 13, "unit": "mm"},
      {"measurement": "Activity", "setting": "Escherichia coli", "value": 13, "unit": "mm"}
    ]},
    {"compound": "Cc1ccc(/C=C/C(=O)c2ccc(F)cc2)cc1", "values": [
      {"measurement": "Activity", "setting": "Achaea janata [4]", "value": 9},
      {"measurement": "Activity", "setting": "Aspergillus niger", "value": "inactive"},
      {"measurement": "Activity", "setting": "Enterococcus faecalis", "value": "inactive"},
      {"measurement": "Activity", "setting": "Proteus vulgaris", "value": 8, "unit": "mm"},
      {"measurement": "Activity", "setting": "Klebsiella", "value": 8, "unit": "mm"},
      {"measurement": "Activity", "setting": "Pseudomonas", "value": 8, "unit": "mm"},
      {"measurement": "Activity", "setting": "Staphylococcus aureus", "value": 13, "unit": "mm"},
      {"measurement": "Activity", "setting": "Escherichia coli", "value": 8, "unit": "mm"}
    ]},
    {"compound": "O=C(/C=C/c1ccc(Br)cc1)c1ccc(F)cc1", "values": [
      {"measurement": "Activity", "setting": "Achaea janata [4]", "value": 0.5},
      {"measurement": "inhibition", "setting": "Aspergillus niger", "value": "Active"},
      {"measurement": "inhibition", "setting": "Penicillium", "value": "Active"},
      {"measurement": "inhibition", "setting": "Candida albicans", "value": "Active"},
      {"measurement": "Activity", "setting": "Enterococcus faecalis", "value": 20, "unit": "mm"},
      {"measurement": "Activity", "setting": "Proteus vulgaris", "value": 13, "unit": "mm"},
      {"measurement": "Activity", "setting": "Klebsiella", "value": 20, "unit": "mm"},
      {"measurement": "Activity", "setting": "Pseudomonas", "value": 13, "unit": "mm"},
      {"measurement": "Activity", "setting": "Staphylococcus aureus", "value": 20, "unit": "mm"},
      {"measurement": "Activity", "setting": "Escherichia coli", "value": 20, "unit": "mm"}
    ]},
    {"compound": "CN(C)c1ccc(/C=C/C(=O)c2ccc(F)cc2)cc1", "values": [
      {"measurement": "Activity", "setting": "Achaea janata [4]", "value": 9},
      {"measurement": "inhibition", "setting": "Aspergillus niger", "value": "Active"},
      {"measurement": "inhibition", "setting": "Penicillium", "value": "Active"},
      {"measurement": "Activity", "setting": "Enterococcus faecalis", "value": "inactive"},
      {"measurement": "Activity", "setting": "Proteus vulgaris", "value": 13, "unit": "mm"},
      {"measurement": "Activity", "setting": "Klebsiella", "value": 13, "unit": "mm"},
      {"measurement": "Activity", "setting": "Pseudomonas", "value": 20, "unit": "mm"},
      {"measurement": "Activity", "setting": "Staphylococcus aureus", "value": 20, "unit": "mm"},
      {"measurement": "Activity", "setting": "Escherichia coli", "value": 20, "unit": "mm"}
    ]}
  ]
}
